{"source": "paper PMC11091888", "about": "“Evaluation of Fusobacterium nucleatum Enoyl-ACP Reductase (FabK) as a Narrow-Spectrum Drug Target” (ACS Infectious Diseases, 2024)", "key": {"CdFabK": {"test_system": "CdFabK", "set-up": "method as in PMID 37224699", "details": "previously reported, cited from earlier work"}, "P. gingivalis 33277": {"test_system": "P. gingivalis 33277", "assay": "MIC, digestive tract panel", "type": "cell-based", "details": "Porphyromonas gingivalis, ENR FabK", "procedure": "(§1) Compounds were twofold serially diluted (100–0.2 μg/mL) across a 96-well plate in 100 μL of media used for the specific organism (Table S4). For anaerobes, plates were incubated anaerobically at 37 °C for 1 h and then inoculated with approximately 10^5 to 10^6 CFU/well. Plates were incubated at 37 °C for up to 48 h, and MICs were read by visual inspection."}, "Streptococcus downei": {"test_system": "Streptococcus downei", "assay": "MIC, digestive tract panel", "type": "cell-based", "details": "ENR FabK", "procedure": "as §1"}, "Streptococcus sanguinis": {"test_system": "Streptococcus sanguinis", "assay": "MIC, digestive tract panel", "type": "cell-based", "details": "ENR FabK", "procedure": "as §1"}, "F. periodonticum 2_1_31": {"test_system": "F. periodonticum 2_1_31", "assay": "MIC, digestive tract panel", "type": "cell-based", "details": "ENR FabK", "procedure": "as §1"}, "Clostridium sp. MSTE9": {"test_system": "Clostridium sp. MSTE9", "assay": "MIC, digestive tract panel", "type": "cell-based", "details": "ENR FabK", "procedure": "as §1"}, "[1]": {"test_system": "Propionibacterium acidifaciens", "assay": "MIC, digestive tract panel", "type": "cell-based", "details": "ENR FabI", "procedure": "as §1"}, "P. gingivalis F0185": {"test_system": "P. gingivalis F0185", "assay": "MIC, digestive tract panel", "type": "cell-based", "details": "Porphyromonas gingivalis, ENR FabK", "procedure": "as §1"}, "F. periodonticum 33693": {"test_system": "F. periodonticum 33693", "assay": "MIC, digestive tract panel", "type": "cell-based", "details": "ENR FabK", "procedure": "as §1"}, "Streptococcus sp. SPAR10": {"test_system": "Streptococcus sp. SPAR10", "assay": "MIC, digestive tract panel", "type": "cell-based", "details": "ENR FabK", "procedure": "as §1"}, "P. gingivalis F0566": {"test_system": "P. gingivalis F0566", "assay": "MIC, digestive tract panel", "type": "cell-based", "details": "Porphyromonas gingivalis, ENR FabK", "procedure": "as §1"}, "E. faecalis FA2–2": {"test_system": "E. faecalis FA2–2", "assay": "MIC against wild-type E. faecalis FA2-2 (FabI and FabK)", "type": "cell-based, Enterococcus faecalis", "details": "E. faecalis FA2-2, possesses both FabI and FabK", "procedure": "as §1"}, "[2]": {"assay": "Cytotoxicity against HCT116 cells (resazurin viability)", "type": "cell-based", "details": "human, HCT116 colorectal carcinoma cells, maximum tested concentration 100 μg/mL", "procedure": "This was done as described[36] using colorectal carcinoma HCT116 and Vero epithelial cells cultured at 37 °C in 5% CO2 in Dulbecco’s modified Eagle’s medium (DMEM) with 4.5 g/L glucose and L-glutamine. The medium was supplemented with 10% v/v FetalGro (Rocky Mountain Biologicals). Approximately 25,000/well were aliquoted into black 96-well plates (Greiner Bio-One) and incubated overnight, before being resuspended in DMEM supplemented with 20% Gibco KnockOut Serum Replacement (Thermo Fisher Scientific). […] Cell viability was analyzed using resazurin as described.[36]"}, "F. nucleatum 23726": {"test_system": "F. nucleatum 23726", "assay": "Growth in FAS-II inhibitor with or without exogenous fatty acids", "type": "cell-based, Fusobacterium nucleatum", "details": "fatty acid mixture of Table S2", "procedure": "To plates containing twofold serial dilutions of compounds, exponential phase cultures were added to a final OD600nm of 0.1. Plates containing F. nucleatum in Columbia broth were incubated at 37 °C inside of a Tecan Infinite 200 Pro, which was inside an anaerobic chamber; growth kinetics for Streptococcus spp. in brain heart infusion broth were done aerobically in the same Tecan instrument."}, "[3]": {"test_system": "F. nucleatum 23726 mutants JR1-JR4", "assay": "MIC against 681-resistant mutants of F. nucleatum 23726", "type": "cell-based, Fusobacterium nucleatum", "details": "for MIC: Fusobacterium nucleatum", "procedure": "as §1\nOvernight cultures of F. nucleatum 23726 were diluted 1:50 in fresh Columbia broth, which was used to inoculate 96-well plates containing twofold serial dilutions of compound 681. After 48 h of incubation, cultures were recovered from wells one dilution below the MIC, and this was used to establish the inocula for the subsequent passage into 96-well plates containing 681. This process was repeated until cultures grew at 8× the original MIC for two consecutive passages. Cultures were then plated onto Columbia blood agar plates and incubated for 72 h at 37 °C. Single colonies were collected into Columbia broth with 0.39 μg/mL of 681 and cultured for up to 48 h and then plated onto selective Columbia blood agar plates to further purify putative 681-resistant colonies."}, "FnFabK": {"target": "FnFabK (Fusobacterium nucleatum subsp. nucleatum, UniProt Q8RGV3)", "sequence (Q8RGV3 entry or part of it)": "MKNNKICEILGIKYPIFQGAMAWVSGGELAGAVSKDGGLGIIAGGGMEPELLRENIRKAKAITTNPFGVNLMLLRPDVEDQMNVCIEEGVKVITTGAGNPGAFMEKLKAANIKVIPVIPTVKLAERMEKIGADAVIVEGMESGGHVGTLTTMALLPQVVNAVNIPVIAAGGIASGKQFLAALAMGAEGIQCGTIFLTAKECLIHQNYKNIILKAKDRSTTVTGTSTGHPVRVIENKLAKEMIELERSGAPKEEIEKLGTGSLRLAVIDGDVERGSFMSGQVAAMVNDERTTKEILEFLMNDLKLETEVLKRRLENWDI", "assay": "biochemical", "procedure": "Incubation lasted for a total of 10 min before the addition of crotonyl-CoA substrate, and the reaction was initiated by the addition of NADH for a final assay volume of 100 μL. The oxidation of NADH to NAD+ was measured by tracking fluorescence (340 nm/460 nm) with a Biotek Synergy H1 microplate reader in 15 s intervals for a total of 10 min to monitor the rate of reaction. The reaction was conducted in Greiner Bio-One 384-well μClear Bottom Polystyrene Microplates. […] Measurements were conducted in triplicate, and IC50’s were calculated via GraphPad Prism 9.1.2 using four-parameter logistic (Hill) curve analysis using equation Y = bottom + (top – bottom)/[1 + 10 (Log IC50 – X) × Hill Slope], where X is the logarithm of the dose and Y is the response. The assay concentrations of the cofactor, NADH, and substrate, crotonyl-CoA, were also determined via GraphPad Prism 9.1.2 using the substrate inhibition model to determine Km(app)."}}, "note": "Where “and” joins values, the source holds several entries; their conditions need not be identical. Equal entries are not always repeated. Entries after “also recorded” stand apart in the source; their conditions may differ. Where two headings read alike, the source gives them in different places."}
{"smiles": "CS(=O)(=O)c1ccc2nc(NC(=O)NCc3nc(-c4ccc(Br)cc4)c[nH]3)sc2c1", "note": "[Compound 681, 1-((4-(4-bromophenyl)-1H-imidazole-2-yl)methyl)-3-(6-(methylsulfonyl)benzo[d]thiazol-2-yl)urea]", "values": [{"measurement": "IC50 against CdFabK, equivalent concentration", "setting": "CdFabK", "result": 0.2, "unit": "µg/mL"}, {"measurement": "IC50", "setting": "CdFabK; read-out: IC50 against CdFabK", "result": 450, "unit": "nM"}, {"measurement": "MIC", "setting": "P. gingivalis 33277", "result": "> 100", "unit": "µg/mL"}, {"measurement": "MIC", "setting": "Streptococcus downei", "result": "< 1.6", "unit": "µg/mL"}, {"measurement": "MIC", "setting": "Streptococcus sanguinis", "result": "< 1.6", "unit": "µg/mL"}, {"measurement": "MIC", "setting": "F. periodonticum 2_1_31", "result": 0.8, "unit": "µg/mL"}, {"measurement": "MIC", "setting": "Clostridium sp. MSTE9", "result": "> 100", "unit": "µg/mL"}, {"measurement": "MIC", "setting": "[1]", "result": 6.3, "unit": "µg/mL"}, {"measurement": "MIC", "setting": "P. gingivalis F0185", "result": 6.3, "unit": "µg/mL"}, {"measurement": "MIC", "setting": "F. periodonticum 33693", "result": 0.8, "unit": "µg/mL"}, {"measurement": "MIC", "setting": "Streptococcus sp. SPAR10", "result": "< 1.6", "unit": "µg/mL"}, {"measurement": "MIC", "setting": "P. gingivalis F0566", "result": 3.1, "unit": "µg/mL"}, {"measurement": "MIC Ef wild-type", "setting": "E. faecalis FA2–2", "result": "100 µg/mL and >100 µg/mL"}, {"measurement": "MIC", "setting": "E. faecalis FA2–2; Enterococcus faecalis, read-out: MIC Ef wild-type", "result": "> 100", "unit": "µg/mL"}, {"measurement": "IC50 at 24 h", "setting": "[2]", "result": "> 100", "unit": "µg/mL"}, {"measurement": "Effect of exogenous fatty acids on growth inhibition of F. nucleatum", "setting": "F. nucleatum 23726", "result": "did not attenuate; also recorded: did not rescue"}, {"measurement": "MIC against mutant JR2", "setting": "[3]; 12 bp deletion upstream of fabX", "result": 3.1, "unit": "µg/mL"}, {"measurement": "MIC", "setting": "[3]; read-out: MIC against mutant JR2", "result": 6.3, "unit": "µg/mL"}, {"measurement": "MIC", "setting": "[3]; read-out: MICs against mutants JR1-JR4", "result": "3.1 to 12.5", "unit": "µg/mL"}, {"measurement": "MIC against mutant JR3", "setting": "[3]; fabK TSS + 1: C > T", "result": 3.1, "unit": "µg/mL"}, {"measurement": "IC50", "setting": "FnFabK; IC50 against FnFabK, equivalent concentration, conversion of the μM value", "result": 1.97, "unit": "µM"}, {"measurement": "Hill coefficient (FnFabK inhibition)", "setting": "FnFabK; four-parameter logistic fit", "result": 1.01}]}
